# Measured values: ChEMBL document CHEMBL1201862, “PubChem BioAssay data set” (2004)
#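 Tested at 5 concentrations; 48 h exposure; 96-well plates; endpoints linearly interpolated, else capped at highest concentration. The concentration for 50% growth inhibition is given as GI50.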 Calls of active or inactive are those of the source. Rule as the data show it: active = GI50 up to about 1.1 µM and inactive = higher.
# Key:
# Assay in all cases: NCI anticancer screen, dose series, 48 h
# OVCAR-3 = tested on: OVCAR-3
# HOP-92 = tested on: HOP-92
# HCC 2998 = tested on: HCC 2998
# NCI-H460 = tested on: NCI-H460
# MOLT-4 = tested on: MOLT-4
# KM-20L2 = tested on: KM-20L2
# UACC-257 = tested on: UACC-257
# K562 = tested on: K562
# OVCAR-5 = tested on: OVCAR-5
# SF-295 = tested on: SF-295
# DMS-114 = tested on: DMS-114
# OVCAR-8 = tested on: OVCAR-8
# RPMI-8226 = tested on: RPMI-8226
# SNB-19 = tested on: SNB-19
# SNB-75 = tested on: SNB-75
# RXF 393 = tested on: RXF 393
# M19-MEL = tested on: M19-MEL
# KM12 = tested on: KM12
# RXF 631 = tested on: RXF 631
# SK-MEL-28 = tested on: SK-MEL-28
# Malme-3M = tested on: Malme-3M
# HCT-15 = tested on: HCT-15
# DLD-1 = tested on: DLD-1
# HL-60 = tested on: HL-60
# 786-0 = tested on: 786-0
# NCI-H226 = tested on: NCI-H226
# LOX IMVI = tested on: LOX IMVI
# NCI-H522 = tested on: NCI-H522
# SF-539 = tested on: SF-539
# M14 = tested on: M14
# UACC-62 = tested on: UACC-62
# SK-OV-3 = tested on: SK-OV-3
# NCI-H23 = tested on: NCI-H23
# HOP-62 = tested on: HOP-62
# SK-MEL-2 = tested on: SK-MEL-2
# SN12C = tested on: SN12C
# CCRF-CEM = tested on: CCRF-CEM
# IGROV-1 = tested on: IGROV-1
# SF-268 = tested on: SF-268
# LXFL 529 = tested on: LXFL 529
# A549 = tested on: A549
# HCT-116 = tested on: HCT-116
# OVCAR-4 = tested on: OVCAR-4
# EKVX = tested on: EKVX
# TK-10 = tested on: TK-10
# HT-29 = tested on: HT-29
# COLO 205 = tested on: COLO 205
# SW-620 = tested on: SW-620
# HOP-18 = tested on: HOP-18
# U-251 = tested on: U-251
# DMS-273 = tested on: DMS-273
# SK-MEL-5 = tested on: SK-MEL-5
# SR = tested on: SR
# UO-31 = tested on: UO-31
# ACHN = tested on: ACHN
# XF498 = tested on: XF498
# A498 = tested on: A498
# CAKI-1 = tested on: CAKI-1
# SNB-78 = tested on: SNB-78
smiles,measurement,setting,value
Cc1cnc2c(c1)C(=O)C1=C(OC(C)(C)CC1O)C2=O (configuration not stated),GI50,OVCAR-3,11.1 µM (inactive)
same,GI50,HOP-92,16.7 µM (inactive)
same,GI50,HCC 2998,17.7 µM (inactive)
same,GI50,NCI-H460,11 µM (inactive)
same,GI50,MOLT-4,15.9 µM (inactive)
same,GI50,KM-20L2,17.7 µM (inactive)
same,GI50,UACC-257,13.3 µM (inactive)
same,GI50,K562,16.8 µM (inactive)
same,GI50,OVCAR-5,> 100 µM (inactive)
same,GI50,SF-295,13.3 µM (inactive)
same,GI50,DMS-114,10.4 µM (inactive)
same,GI50,OVCAR-8,15 µM (inactive)
same,GI50,RPMI-8226,13.6 µM (inactive)
same,GI50,SNB-19,16.7 µM (inactive)
same,GI50,SNB-75,14.4 µM (inactive)
same,GI50,RXF 393,15.5 µM (inactive)
same,GI50,M19-MEL,3.1 µM (inactive)
same,GI50,KM12,> 100 µM (inactive)
same,GI50,RXF 631,> 10 µM (inactive)
same,GI50,SK-MEL-28,17.3 µM (inactive)
same,GI50,Malme-3M,14.4 µM (inactive)
same,GI50,HCT-15,16.7 µM
same,GI50,DLD-1,16 µM (inactive)
same,GI50,HL-60,4.45 µM (inactive)
same,GI50,786-0,14.9 µM (inactive)
same,GI50,NCI-H226,20.1 µM (inactive)
same,GI50,LOX IMVI,10.5 µM (inactive)
same,GI50,NCI-H522,15.8 µM (inactive)
same,GI50,SF-539,16.4 µM (inactive)
same,GI50,M14,16.4 µM (inactive)
same,GI50,UACC-62,3.79 µM (inactive)
same,GI50,SK-OV-3,18.9 µM (inactive)
same,GI50,NCI-H23,10.7 µM (inactive)
same,GI50,HOP-62,19.4 µM (inactive)
same,GI50,SK-MEL-2,> 100 µM (inactive)
same,GI50,SN12C,15.6 µM (inactive)
same,GI50,CCRF-CEM,13.2 µM (inactive)
same,GI50,IGROV-1,15.2 µM (inactive)
same,GI50,SF-268,14.9 µM (inactive)
same,GI50,LXFL 529,16.2 µM (inactive)
same,GI50,A549,16.2 µM (inactive)
same,GI50,HCT-116,14.4 µM (inactive)
same,GI50,OVCAR-4,12.8 µM (inactive)
same,GI50,EKVX,20.7 µM (inactive)
same,GI50,TK-10,18.5 µM (inactive)
same,GI50,HT-29,20.6 µM (inactive)
same,GI50,COLO 205,16.7 µM (inactive)
same,GI50,SW-620,14.7 µM (inactive)
same,GI50,HOP-18,15.8 µM (inactive)
same,GI50,U-251,15.2 µM (inactive)
same,GI50,DMS-273,11.9 µM (inactive)
same,GI50,SK-MEL-5,14 µM (inactive)
same,GI50,SR,7.89 µM (inactive)
same,GI50,UO-31,15.7 µM (inactive)
same,GI50,ACHN,15.2 µM (inactive)
same,GI50,XF498,19.5 µM (inactive)
CCC(=O)OC[n+]1ccc2c(C)c3[nH]c4ccccc4c3c(C)c2c1,GI50,OVCAR-3,1.33 µM (inactive)
same,GI50,HOP-92,0.107 µM (active)
same,GI50,A498,1.21 µM (inactive)
same,GI50,NCI-H460,0.033 µM (active)
same,GI50,MOLT-4,0.0358 µM (active)
same,GI50,KM-20L2,0.504 µM (active)
same,GI50,UACC-257,1.37 µM (inactive)
same,GI50,K562,0.618 µM (active)
same,GI50,OVCAR-5,0.516 µM (active)
same,GI50,SF-295,0.532 µM (active)
same,GI50,DMS-114,0.608 µM (active)
same,GI50,OVCAR-8,0.454 µM (active)
same,GI50,RPMI-8226,0.284 µM (active)
same,GI50,SNB-19,1.6 µM (inactive)
same,GI50,SNB-75,1.29 µM (inactive)
same,GI50,RXF 393,0.552 µM (active)
same,GI50,M19-MEL,0.681 µM (active)
same,GI50,KM12,0.483 µM (active)
same,GI50,CAKI-1,1.11 µM (active)
same,GI50,RXF 631,0.504 µM (active)
same,GI50,SK-MEL-28,1.38 µM (inactive)
same,GI50,Malme-3M,1.35 µM (inactive)
same,GI50,DLD-1,0.229 µM (active)
same,GI50,HL-60,2.45 µM (inactive)
same,GI50,786-0,0.767 µM (active)
same,GI50,NCI-H226,0.735 µM (active)
same,GI50,LOX IMVI,0.337 µM (active)
same,GI50,SF-539,0.478 µM (active)
same,GI50,M14,1.08 µM (active)
same,GI50,NCI-H23,0.675 µM (active)
same,GI50,SK-MEL-2,1.03 µM (active)
same,GI50,SN12C,0.401 µM (active)
same,GI50,CCRF-CEM,0.444 µM (active)
same,GI50,IGROV-1,0.142 µM (active)
same,GI50,SF-268,0.552 µM (active)
same,GI50,LXFL 529,0.413 µM (active)
same,GI50,A549,0.272 µM (active)
same,GI50,HCT-116,0.115 µM (active)
same,GI50,OVCAR-4,0.505 µM (active)
same,GI50,TK-10,1.36 µM (inactive)
same,GI50,HT-29,0.328 µM (active)
same,GI50,COLO 205,0.323 µM (active)
same,GI50,SW-620,0.173 µM (active)
same,GI50,HOP-18,< 0.01 µM (active)
same,GI50,SNB-78,1.29 µM (inactive)
same,GI50,U-251,0.397 µM (active)
same,GI50,SK-MEL-5,1.25 µM (inactive)
same,GI50,SR,0.0423 µM (active)
same,GI50,ACHN,0.289 µM (active)
same,GI50,XF498,1.88 µM (inactive)
Cc1c(C2Cc3ccccc3N2C(=O)/C=C\C(=O)O)c2ccccc2n1C (configuration not stated),GI50,OVCAR-3,17.5 µM (inactive)
same,GI50,HOP-92,17.7 µM (inactive)
same,GI50,A498,18 µM (inactive)
same,GI50,HCC 2998,21.4 µM (inactive)
same,GI50,NCI-H460,> 100 µM (inactive)
same,GI50,MOLT-4,27.7 µM (inactive)
same,GI50,KM-20L2,25.1 µM (inactive)
same,GI50,UACC-257,16.2 µM (inactive)
same,GI50,K562,36.4 µM (inactive)
same,GI50,OVCAR-5,48.4 µM (inactive)
same,GI50,SF-295,24.4 µM (inactive)
same,GI50,DMS-114,18.7 µM (inactive)
same,GI50,OVCAR-8,18.5 µM (inactive)
same,GI50,SNB-19,17.4 µM (inactive)
same,GI50,SNB-75,21.8 µM (inactive)
same,GI50,RXF 393,17.2 µM (inactive)
same,GI50,M19-MEL,19.7 µM (inactive)
same,GI50,KM12,18.4 µM (inactive)
same,GI50,CAKI-1,25.8 µM (inactive)
same,GI50,RXF 631,> 100 µM (inactive)
same,GI50,Malme-3M,15.9 µM (inactive)
same,GI50,HCT-15,> 100 µM
same,GI50,DLD-1,35.9 µM (inactive)
same,GI50,HL-60,18.1 µM (inactive)
same,GI50,786-0,18.4 µM (inactive)
same,GI50,NCI-H226,20.2 µM (inactive)
same,GI50,LOX IMVI,16.9 µM (inactive)
same,GI50,NCI-H522,19.2 µM (inactive)
same,GI50,SF-539,21.6 µM (inactive)
same,GI50,M14,17.8 µM (inactive)
same,GI50,UACC-62,16.9 µM (inactive)
same,GI50,SK-OV-3,23.4 µM (inactive)
same,GI50,NCI-H23,25.9 µM (inactive)
same,GI50,HOP-62,27.6 µM (inactive)
same,GI50,SK-MEL-2,17.7 µM (inactive)
same,GI50,SN12C,19.5 µM (inactive)
same,GI50,CCRF-CEM,30.8 µM (inactive)
same,GI50,IGROV-1,24.4 µM (inactive)
same,GI50,SF-268,18.7 µM (inactive)
same,GI50,LXFL 529,17.3 µM (inactive)
same,GI50,A549,33 µM (inactive)
same,GI50,HCT-116,27.5 µM (inactive)
same,GI50,OVCAR-4,30.6 µM (inactive)
same,GI50,EKVX,30.2 µM (inactive)
same,GI50,TK-10,22 µM (inactive)
same,GI50,HT-29,35.3 µM (inactive)
same,GI50,COLO 205,17.1 µM (inactive)
same,GI50,SW-620,20 µM (inactive)
same,GI50,SNB-78,35.5 µM (inactive)
same,GI50,U-251,20.1 µM (inactive)
same,GI50,DMS-273,34.8 µM (inactive)
same,GI50,SK-MEL-5,18.2 µM (inactive)
same,GI50,SR,30.1 µM (inactive)
same,GI50,UO-31,20.4 µM (inactive)
same,GI50,ACHN,38.6 µM (inactive)
same,GI50,XF498,17.3 µM (inactive)
